Test results published in ChEMBL document CHEMBL1201862, “PubChem BioAssay data set” (2004).
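48-hour exposure; five concentrations; linearly interpolated endpoints. GI50 is the concentration that inhibits growth by half.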 Activity calls are given as the source filed them. Cut-off read from the data, not from the text of the source: active = GI50 up to about 1.1 µM and inactive = higher.

Assays:
Assay in all cases: NCI anticancer screen, dose series, 48 h
[1] = system: A549
[2] = system: CCRF-CEM
[3] = system: EKVX
[4] = system: HCC 2998
[5] = system: HOP-92
[6] = system: K562
[7] = system: LOX IMVI
[8] = system: Malme-3M
[9] = system: NCI-H522
[10] = system: OVCAR-5
[11] = system: RPMI-8226
[12] = system: SF-539
[13] = system: SK-MEL-5
[14] = system: SNB-19
[15] = system: SW-620
[16] = system: U-251
[17] = system: MDA-MB-435
[18] = system: PC-3
[19] = system: MDA-MB-231

Measured: GI50

C=CCN(C)CN(C)c1nc(N(C)C)nc(N(C)C)n1
inactive: [1] > 100 µM | [2] 33 µM | [3] > 100 µM | [4] 53.2 µM | [5] > 100 µM | [6] > 100 µM | [7] 54 µM | [8] > 100 µM | [9] 11.2 µM | [10] > 100 µM | [11] 46.6 µM | [12] > 100 µM | [13] > 100 µM | [14] > 100 µM | [15] 36.3 µM | [16] > 100 µM

Cc1c2c(n(C)c1C)C(=O)C1C(C2=O)C2(C)c3ccccc3C1(C)c1ccccc12 (stereo not given)
inactive: [2] > 100 µM | [3] > 100 µM | [6] > 100 µM | [7] > 100 µM | [17] > 100 µM | [8] > 100 µM | [10] > 100 µM | [18] > 100 µM | [11] > 100 µM | [12] > 100 µM | [13] > 100 µM | [14] > 100 µM | [15] > 100 µM | [16] > 10 µM

CS(=O)(=O)OCCCOS(C)(=O)=O
inactive: [1] > 100 µM | [2] > 100 µM | [3] > 100 µM | [4] > 100 µM | [5] > 100 µM | [6] > 100 µM | [7] > 100 µM | [8] > 100 µM | [9] > 100 µM | [10] > 100 µM | [11] > 100 µM | [12] > 100 µM | [13] > 100 µM | [14] > 100 µM | [15] > 100 µM | [16] > 100 µM

CCOC1(OCC)N=C(N)C2(C#N)C3(C(=O)N(C(C)C)N=C3C)C12C#N (stereo not given)
inactive: [1] > 100 µM | [2] 38.5 µM | [3] > 100 µM | [4] > 100 µM | [5] > 100 µM | [6] > 100 µM | [19] > 100 µM | [17] > 100 µM | [8] > 100 µM | [9] 79.1 µM | [10] > 100 µM | [18] > 100 µM | [11] > 100 µM | [12] > 100 µM | [14] > 100 µM | [15] > 100 µM | [16] > 100 µM

COc1cc2c(oc(=O)c3c4oc([Si](C)(C)C)cc4cc(OC)c23)c2cccc(OCc3ccccc3)c12
inactive: [1] 44 µM | [2] 48.3 µM | [3] > 66.5 µM | [4] > 64.3 µM | [5] 34.8 µM | [6] 57 µM | [7] 44 µM | [8] 32.1 µM | [9] 36.4 µM | [10] > 70.3 µM | [11] 28.4 µM | [12] 20.7 µM | [13] 38 µM | [14] 23.8 µM | [15] 68.9 µM

CCOC(=O)[C@]12C(=C(c3ccccc3)O[C@H]3C=CCC[C@H]31)C(=O)C(=O)N2c1ccccc1
inactive: [1] > 100 µM | [4] > 100 µM | [6] 17.5 µM | [19] > 100 µM | [8] 65.5 µM | [9] 24 µM | [10] > 100 µM | [18] 58.2 µM | [11] 19.8 µM | [12] > 100 µM | [13] 93.8 µM | [14] > 100 µM | [16] 13.4 µM

O=C1/C(=N\O)C2CCC1C2 (stereo not given)
inactive: [1] > 100 µM | [2] > 100 µM | [3] > 100 µM | [4] > 100 µM | [5] > 100 µM | [6] > 100 µM | [7] > 100 µM | [8] > 100 µM | [9] > 100 µM | [10] > 100 µM | [11] > 100 µM | [12] > 100 µM | [13] > 100 µM | [14] > 100 µM | [15] > 100 µM | [16] > 100 µM

COc1ccc2c(c1)OC[C@@H]1c3cc4c(cc3O[C@H]21)OCO4
inactive: [1] > 100 µM | [2] > 100 µM | [3] > 100 µM | [4] > 100 µM | [5] 70 µM | [6] > 100 µM | [7] > 100 µM | [8] > 100 µM | [9] > 100 µM | [10] > 100 µM | [11] > 100 µM | [12] > 100 µM | [13] > 100 µM | [14] 30.4 µM | [15] > 100 µM | [16] > 100 µM

O=C1C[C@@H](c2ccc(O)cc2)[C@@]2(O1)C(=O)O[C@H]([C@@H](O)CO)[C@@H]2O
inactive: [1] > 100 µM | [2] > 100 µM | [3] > 100 µM | [4] > 100 µM | [5] > 100 µM | [6] > 100 µM | [7] > 100 µM | [19] > 100 µM | [17] > 100 µM | [8] > 100 µM | [9] > 100 µM | [10] > 100 µM | [18] > 100 µM | [11] > 100 µM | [12] > 100 µM | [13] > 100 µM | [14] > 100 µM | [15] > 100 µM | [16] > 100 µM

O=C(Nc1nnc(S)[nH]1)C(=O)C(C(=O)c1ccc2ccccc2c1)C1OC(=O)c2ccccc21 (stereo not given)
inactive: [1] 37.5 µM | [2] 15.5 µM | [3] 39.7 µM | [4] 11.5 µM | [5] 25.8 µM | [6] 21 µM | [7] 17.8 µM | [8] 31 µM | [9] 17.6 µM | [10] 44.3 µM | [11] 7.69 µM | [12] 5.56 µM | [13] 18.1 µM | [14] 7.64 µM | [15] 28.9 µM | [16] 8.15 µM

Cc1cc(Cl)ccc1NC(=O)C(=O)Cc1nc2ccccc2o1
inactive: [1] > 100 µM | [2] > 100 µM | [3] > 100 µM | [4] > 100 µM | [5] > 100 µM | [6] > 100 µM | [7] > 100 µM | [8] > 100 µM | [9] > 100 µM | [10] > 100 µM | [11] > 100 µM | [12] > 100 µM | [13] > 100 µM | [14] > 100 µM | [15] > 100 µM | [16] > 100 µM

Nc1nc(S)nc(C(=O)Nc2nccs2)c1-c1ccccc1
inactive: [1] > 100 µM | [2] > 100 µM | [3] > 100 µM | [4] > 100 µM | [5] > 100 µM | [6] > 100 µM | [7] > 100 µM | [8] > 100 µM | [9] > 100 µM | [10] > 100 µM | [11] > 100 µM | [12] > 100 µM | [13] > 100 µM | [14] > 100 µM | [15] > 100 µM | [16] > 100 µM
